# According to patent US9708336B2, “Metallo-beta-lactamase inhibitors” (priority 2014, dated 2017):
# Where two headings read alike, the source gives them in different places.
# What was measured:
# NDM-1 = NDM-1 (Klebsiella pneumoniae, UniProt C7C422); assay: biochemical; format: biochemical; conditions: read-out: NDM-1 IC50
# [1] = test system: Klebsiella pneumoniae expressing VIM-1 (IHMA599644); assay: Antibiotic potentiation activity: synergistic concentration (MITC95) with imipenem, OD600 growth; format: cell-based; conditions: for Klebsiella pneumoniae expressing VIM-1 (IHMA 599644) MITC95: concentration giving 95% inhibition of bacterial growth; for Klebsiella pneumoniae MITC95: Klebsiella pneumoniae expressing VIM-1 (IHMA599644), 95% growth inhibition
# Method in brief: (§1)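 Clinical MBL-producing strains (E. coli NDM-1, S. marcescens IMP-1, K. pneumoniae VIM-1) from overnight plates were diluted 1:100 into 1.1×CAMHB. Compound was tested with imipenem at 4 μg/ml (optionally 1 μg/ml) or without it. After 22–24 h at 35 °C, growth was read as OD600.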
# [2] = test system: Serratia marcescens expressing IMP-1 (CL5741); assay: as above; format: cell-based; conditions: for Serratia marcescens expressing IMP-1 (CL5741) MITC95: concentration giving 95% inhibition of bacterial growth; for Serratia marcescens MITC95: Serratia marcescens expressing IMP-1 (CL5741), 95% growth inhibition
# Method in brief: as §1
# [3] = test system: Escherichia coli expressing NDM-1 (CLB30005); assay: as above; format: cell-based; conditions: for Escherichia coli expressing NDM-1 (CLB 30005) MITC95: concentration giving 95% inhibition of bacterial growth; for Escherichia coli MITC95: Escherichia coli expressing NDM-1 (CLB30005), 95% growth inhibition
# Method in brief: as §1
# IMP-1 = IMP-1 (Serratia marcescens, UniProt P52699); assay: biochemical; format: biochemical; conditions: read-out: IMP-1 IC50
# VIM-1 = VIM-1 (Pseudomonas aeruginosa (strain ATCC 15692 / DSM 22644 / CIP 104116 / JCM 14847 / LMG 12228 / 1C / PRS 101 / PAO1), UniProt A0A0F7KYQ8); assay: Enzyme activity: determination of IC50, fluorescence assay with CCF2-FA substrate (VIM-1); format: biochemical
# [4] = fluorescence assay with CCF2-FA substrate
# [5] = fluorescence assay with CCF2-FA substrate, read-out: VIM-1 IC50
# [6] = NDM-1 enzyme, CCF2-FA fluorescence assay
# [7] = IMP-1 enzyme, CCF2-FA fluorescence assay
# [8] = VIM-1 enzyme, CCF2-FA fluorescence assay, read-out: VIM-1 IC50
# IMP-1, sequence (P52699 whole entry, looked up): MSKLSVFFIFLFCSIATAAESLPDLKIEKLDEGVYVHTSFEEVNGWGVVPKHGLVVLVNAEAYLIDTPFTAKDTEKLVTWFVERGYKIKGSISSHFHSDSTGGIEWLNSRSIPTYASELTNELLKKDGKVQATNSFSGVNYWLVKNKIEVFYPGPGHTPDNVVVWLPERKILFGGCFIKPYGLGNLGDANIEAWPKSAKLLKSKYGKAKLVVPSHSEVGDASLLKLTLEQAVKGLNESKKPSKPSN
# NDM-1, sequence (C7C422 whole entry, looked up, species assumed): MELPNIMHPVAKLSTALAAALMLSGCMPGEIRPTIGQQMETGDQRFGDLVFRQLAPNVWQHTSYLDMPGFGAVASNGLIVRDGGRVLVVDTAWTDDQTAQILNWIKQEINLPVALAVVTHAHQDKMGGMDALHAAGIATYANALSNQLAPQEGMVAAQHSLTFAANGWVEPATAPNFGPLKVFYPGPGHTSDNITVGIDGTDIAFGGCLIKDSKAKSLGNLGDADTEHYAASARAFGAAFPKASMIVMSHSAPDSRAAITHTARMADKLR
Structure (SMILES),IC50 (NDM-1; [4]) [nM],Klebsiella pneumoniae expressing VIM-1 (IHMA 599644) MITC95 [1] [µM],Serratia marcescens expressing IMP-1 (CL5741) MITC95 [2] [µM],Escherichia coli expressing NDM-1 (CLB 30005) MITC95 [3] [µM],IC50 (IMP-1; [4]) [nM],IC50 (VIM-1; [5]) [nM],IC50 (NDM-1; [6]) [nM],Klebsiella pneumoniae MITC95 [1] [µM],Serratia marcescens MITC95 [2] [µM],Escherichia coli MITC95 [3] [µM],IC50 (IMP-1; [7]) [nM],"IC50 (VIM-1; VIM-1 IC50, VIM-1 enzyme, CCF2-FA fluorescence assay) [nM]",IC50 (VIM-1; [8]) [nM],"IC50 (VIM-1; VIM-1 IC50, fluorescence assay with CCF2-FA substrate) [nM]"
"Cc1ccc(-c2ccnc(S(N)(=O)=O)c2-c2nnn[nH]2)cc1 [Example 190, 3-(1H-Tetrazol-5-yl)-4-(p-tolyl)pyridine-2-sulfonamide]",232,>200,100,10.42,3150,1300,–,–,–,–,–,–,–,–
"N#CC1(c2ccc(-c3cccc(S(N)(=O)=O)c3-c3nnn[nH]3)cc2)CCOCC1 [Example 25, 4′-(4-cyanotetrahydro-2H-pyran-4-yl)-2-(1H-tetrazol-5-yl)biphenyl-3-sulfonamide]",< 0.637,>200,12.5,3.125,3.6,45.5,–,–,–,–,–,–,–,–
"NS(=O)(=O)c1cccc(-c2cnc(C3(O)CCC3)s2)c1-c1nn[nH]n1 [Example 21, 3-[2-(1-hydroxycyclobutyl)-1,3-thiazol-5-yl]-2-(2H-tetrazol-5-yl)benzenesulfonamide]",63.8,>200,100,12.89,2270,564,–,–,–,–,–,–,–,–
"NS(=O)(=O)c1nccc(-c2ccc(C(=O)NC3CC3)cc2)c1-c1nnn[nH]1 [Example 185, N-Cyclopropyl-4-(2-sulfamoyl-3-(1H-tetrazol-5-yl)pyridin-4-yl)benzamide]",135,>200,75,2.344,1480,2020,–,–,–,–,–,–,–,–
"C[C@H](O)c1nc(-c2ccc(-c3cccc(S(N)(=O)=O)c3-c3nn[nH]n3)cc2)no1 [Example 251, (S)-4′-(5-(1-hydroxyethyl)-1,2,4-oxadiazol-3-yl)-2-(2H-tetrazol-5-yl)-[1,1′-biphenyl]-3-sulfonamide]",–,–,–,–,–,–,5.85,200,6.25,0.7813,42.5,71.6,–,–
"NCc1ccc(-c2cccc(S(N)(=O)=O)c2-c2nnn[nH]2)cn1 [Example 306, 3-(6-(aminomethyl)pyridin-3-yl)-2-(1H-tetrazol-5-yl)benzenesulfonamide]",–,–,–,–,–,–,104,25,50,1.172,3740,–,300,–
"CC1C(=O)Nc2ccc(-c3cccc(S(N)(=O)=O)c3-c3nn[nH]n3)cc21 (stereo not drawn) [Example 73, 3-(3-methyl-2-oxo-2,3-dihydro-1H-indo1-5-yl)-2-(2H-tetrazol-5-yl)benzenesulfonamide]",6.49,100,18.75,1.563,156,66.7,–,–,–,–,–,–,–,–
"Cc1nc(F)ccc1-c1cccc(S(N)(=O)=O)c1-c1nn[nH]n1 [Example 79, 3-(6-fluoro-2-methylpyridin-3-yl)-2-(2H-tetrazol-5-yl)benzenesulfonamide]",48.6,25,150,1.563,3970,–,–,–,–,–,–,–,–,60.2
"CN1CCC=C(c2cccc(S(N)(=O)=O)c2-c2nn[nH]n2)C1 [Example 65, 3-(1-methyl-1,2,5,6-tetrahydropyridin-3-yl)-2-(2H-tetrazol-5-yl)benzenesulfonamide]",905,>200,>200,4.688,20000,4990,–,–,–,–,–,–,–,–
"NS(=O)(=O)c1nccc(N2CCC3(CCNCC3)CC2)c1-c1nn[nH]n1 [Example 245, 4-(3,9-diazaspiro[5.5]undecan-3-yl)-3-(2H-tetrazol-5-yl)pyridine-2-sulfonamide]",–,–,–,–,–,–,266,12.5,50,0.3906,9780,–,460,–
